Tested on: C57BL/6 mice
Test: In vivo food intake and body weight in C57BL/6 mice
Details: 30 nmol/kg subcutaneously every day for 10 days
Experimental: 10 week old male C57BL/6 mice were injected everyday subcutaneously with 30 nmol/kg of the fusion proteins for 10 days (n=5/group), semaglutide was studied in parallel as a control. Body weight (BW) was measured daily for each individual animal and food intake was measured daily for each entire treatment group. Day 1 and Day 10 are the first day and the last day of treatment. % BW loss=100*(BW on Day n−BW on Day 1)/(BW on Day 1). Cumulative food intake on Day n represents sum of food intake from Day 1 to Day n. Data are indicated as mean values and standard error (SEM) or pooled values. Body weight reduction on Day 11 is calculated by −1*(% BW loss of treatment group-% BW loss of vehicle group); Cumulative food intake reduction on Day 11 is calculated by −100*(cumulative food intake of treatment group−cumulative food intake of vehicle group)/cumulative food intake of vehicle group.

**Q.** How did the “Body weight reduction at 30 nmol/kg (% reduction compared to vehicle) (Day 11)” value turn out when semaglutide [reference compound] was run?
**A.** 7.27%

**Q.** What about the “Cumulative food intake reduction at 30 nmol/kg (% reduction compared to vehicle) (Day 11)” value of the same substance?
**A.** 11.8%
